Data taken from article PMC7181660, “A novel specific PERK activator reduces toxicity and extends survival in Huntington's disease models” (Scientific Reports, 2020).

Key:
Test in all cases: biochemical
Type in all cases: biochemical
panel of 391 kinases [1] = target: panel of 391 kinases (Homo sapiens, UniProt Q16513); conditions: PKN2/PRK2, MK-28 1 µM, ATP 1 µM
panel of 391 kinases [2] = target: panel of 391 kinases (Homo sapiens, UniProt P54764); conditions: EPHA4, MK-28 1 µM, ATP 1 µM
panel of 391 kinases [3] = target: panel of 391 kinases (Homo sapiens, UniProt P53350); conditions: PLK1, MK-28 1 µM, ATP 1 µM
panel of 391 kinases [4] = target: panel of 391 kinases (Homo sapiens, UniProt P42345); conditions: kinase mTOR/FRAP1, compound at 1 µM, single dose in duplicates, 1 µM ATP
panel of 391 kinases [5] = target: panel of 391 kinases (Homo sapiens, UniProt Q8N568); conditions: DCAMKL2, MK-28 1 µM, ATP 1 µM
panel of 391 kinases [6] = target: panel of 391 kinases (Homo sapiens, UniProt Q9UQB9); conditions: Aurora C, MK-28 1 µM, ATP 1 µM
panel of 391 kinases [7] = target: panel of 391 kinases (Homo sapiens, UniProt O14920); conditions: IKKb/IKBKB, MK-28 1 µM, ATP 1 µM
panel of 391 kinases [8] = target: panel of 391 kinases (Homo sapiens, UniProt Q16644); conditions: MAPKAPK3, MK-28 1 µM, ATP 1 µM
panel of 391 kinases [9] = target: panel of 391 kinases (Homo sapiens, UniProt Q12852); conditions: DLK/MAP3K12, MK-28 1 µM, ATP 1 µM
panel of 391 kinases [10] = target: panel of 391 kinases (Homo sapiens, UniProt Q96RR4); conditions: CAMKK2, MK-28 1 µM, ATP 1 µM
panel of 391 kinases [11] = target: panel of 391 kinases (Homo sapiens, UniProt O75914); conditions: PAK3, MK-28 1 µM, ATP 1 µM
panel of 391 kinases [12] = target: panel of 391 kinases (Homo sapiens, UniProt Q9HC98); conditions: NEK6, MK-28 1 µM, ATP 1 µM
panel of 391 kinases [13] = target: panel of 391 kinases (Homo sapiens, UniProt Q13233); conditions: MEKK1, MK-28 1 µM, ATP 1 µM
panel of 391 kinases [14] = target: panel of 391 kinases (Homo sapiens, UniProt P57078); conditions: RIPK4, MK-28 1 µM, ATP 1 µM
panel of 391 kinases [15] = target: panel of 391 kinases (Homo sapiens, UniProt P49840); conditions: GSK3a, MK-28 1 µM, ATP 1 µM
panel of 391 kinases [16] = target: panel of 391 kinases (Homo sapiens, UniProt P42684); conditions: ABL2/ARG, MK-28 1 µM, ATP 1 µM
panel of 391 kinases [17] = target: panel of 391 kinases (Homo sapiens, UniProt P42680); conditions: TEC, MK-28 1 µM, ATP 1 µM
panel of 391 kinases [18] = target: panel of 391 kinases (Homo sapiens, UniProt Q02156); conditions: PKCepsilon, MK-28 1 µM, ATP 1 µM
panel of 391 kinases [19] = target: panel of 391 kinases (Homo sapiens, UniProt P51955); conditions: NEK2, MK-28 1 µM, ATP 1 µM
panel of 391 kinases [20] = target: panel of 391 kinases (Homo sapiens, UniProt P11309); conditions: PIM1, MK-28 1 µM, ATP 1 µM
panel of 391 kinases [21] = target: panel of 391 kinases (Homo sapiens, UniProt Q13554); conditions: CAMK2b, MK-28 1 µM, ATP 1 µM
panel of 391 kinases [22] = target: panel of 391 kinases (Homo sapiens, UniProt Q9UF33); conditions: EPHA6, MK-28 1 µM, ATP 1 µM
panel of 391 kinases [23] = target: panel of 391 kinases (Homo sapiens, UniProt P10721); conditions: c-Kit, MK-28 1 µM, ATP 1 µM
panel of 391 kinases [24] = target: panel of 391 kinases (Homo sapiens, UniProt Q99986); conditions: VRK1, MK-28 1 µM, ATP 1 µM
panel of 391 kinases [25] = target: panel of 391 kinases (Homo sapiens, UniProt Q9H4B4); conditions: PLK3, MK-28 1 µM, ATP 1 µM
panel of 391 kinases [26] = target: panel of 391 kinases (Homo sapiens, UniProt O60285); conditions: ARK5/NUAK1, MK-28 1 µM, ATP 1 µM
panel of 391 kinases [27] = target: panel of 391 kinases (Homo sapiens, UniProt O43353); conditions: RIPK2, MK-28 1 µM, ATP 1 µM
[28] = read-out: % Enzyme Activity (relative to DMSO controls)

CN(/N=C\c1ccc(O)c(O)c1)c1nc(-c2ccccc2)cc(-c2ccccc2)n1 [MK-28]
% Enzyme Activity (relative to DMSO controls) (panel of 391 kinases [1]): 111.91%
remaining activity at 1 µM (panel of 391 kinases [1]; [28]): 115%
% Enzyme Activity (relative to DMSO controls) (panel of 391 kinases [2]): 100.54%
remaining activity at 1 µM (panel of 391 kinases [2]; [28]): 101%
% Enzyme Activity (relative to DMSO controls) (panel of 391 kinases [3]): 95.85%
remaining activity at 1 µM (panel of 391 kinases [3]; [28]): 95.9%
% Enzyme Activity (relative to DMSO controls) (panel of 391 kinases [4]): 93.79%
remaining activity at 1 µM (panel of 391 kinases [4]; [28]): 94.4%
% Enzyme Activity (relative to DMSO controls) (panel of 391 kinases [5]): 121.14%
remaining activity at 1 µM (panel of 391 kinases [5]; [28]): 122%
% Enzyme Activity (relative to DMSO controls) (panel of 391 kinases [6]): 93.97%
remaining activity at 1 µM (panel of 391 kinases [6]; [28]): 95.6%
% Enzyme Activity (relative to DMSO controls) (panel of 391 kinases [7]): 96.13%
remaining activity at 1 µM (panel of 391 kinases [7]; [28]): 96.9%
% Enzyme Activity (relative to DMSO controls) (panel of 391 kinases [8]): 71.56%
remaining activity at 1 µM (panel of 391 kinases [8]; [28]): 74.1%
% Enzyme Activity (relative to DMSO controls) (panel of 391 kinases [9]): 122.20%
remaining activity at 1 µM (panel of 391 kinases [9]; [28]): 124%
% Enzyme Activity (relative to DMSO controls) (panel of 391 kinases [10]): 93.50%
remaining activity at 1 µM (panel of 391 kinases [10]; [28]): 97.2%
% Enzyme Activity (relative to DMSO controls) (panel of 391 kinases [11]): 116.60%
remaining activity at 1 µM (panel of 391 kinases [11]; [28]): 117%
% Enzyme Activity (relative to DMSO controls) (panel of 391 kinases [12]): 99.56%
remaining activity at 1 µM (panel of 391 kinases [12]; [28]): 100%
% Enzyme Activity (relative to DMSO controls) (panel of 391 kinases [13]): 92.45%
remaining activity at 1 µM (panel of 391 kinases [13]; [28]): 95.1%
% Enzyme Activity (relative to DMSO controls) (panel of 391 kinases [14]): 89.94%
remaining activity at 1 µM (panel of 391 kinases [14]; [28]): 95.1%
% Enzyme Activity (relative to DMSO controls) (panel of 391 kinases [15]): 82.88%
remaining activity at 1 µM (panel of 391 kinases [15]; [28]): 83%
% Enzyme Activity (relative to DMSO controls) (panel of 391 kinases [16]): 99.46%
remaining activity at 1 µM (panel of 391 kinases [16]; [28]): 100%
% Enzyme Activity (relative to DMSO controls) (panel of 391 kinases [17]): 100.49%
remaining activity at 1 µM (panel of 391 kinases [17]; [28]): 101%
% Enzyme Activity (relative to DMSO controls) (panel of 391 kinases [18]): 100.42%
remaining activity at 1 µM (panel of 391 kinases [18]; [28]): 102%
% Enzyme Activity (relative to DMSO controls) (panel of 391 kinases [19]): 98.55%
remaining activity at 1 µM (panel of 391 kinases [19]; [28]): 99.2%
% Enzyme Activity (relative to DMSO controls) (panel of 391 kinases [20]): 100.72%
remaining activity at 1 µM (panel of 391 kinases [20]; [28]): 101%
% Enzyme Activity (relative to DMSO controls) (panel of 391 kinases [21]): 93.40%
remaining activity at 1 µM (panel of 391 kinases [21]; [28]): 98%
% Enzyme Activity (relative to DMSO controls) (panel of 391 kinases [22]): 92.67%
remaining activity at 1 µM (panel of 391 kinases [22]; [28]): 94%
% Enzyme Activity (relative to DMSO controls) (panel of 391 kinases [23]): 93.67%
remaining activity at 1 µM (panel of 391 kinases [23]; [28]): 93.8%
% Enzyme Activity (relative to DMSO controls) (panel of 391 kinases [24]): 104.86%
remaining activity at 1 µM (panel of 391 kinases [24]; [28]): 106%
% Enzyme Activity (relative to DMSO controls) (panel of 391 kinases [25]): 87.19%
remaining activity at 1 µM (panel of 391 kinases [25]; [28]): 91.2%
% Enzyme Activity (relative to DMSO controls) (panel of 391 kinases [26]): 91.19%
remaining activity at 1 µM (panel of 391 kinases [26]; [28]): 93.8%
% Enzyme Activity (relative to DMSO controls) (panel of 391 kinases [27]): 100.79%
remaining activity at 1 µM (panel of 391 kinases [27]; [28]): 102%
